Test results from ChEMBL document CHEMBL3352011, “Identification of novel 4-anilinoquinazoline derivatives as potent EGFR inhibitors both under normoxia and hypoxia” (Bioorg Med Chem, 2014).

Legend:
[1] = biological target: Epidermal growth factor receptor (Homo sapiens, UniProt P00533);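 also: Wild-type EGFR enzyme inhibition, measured with a Z'-Lyte kinase assay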
Description: Inhibition of wild type EGFR (unknown origin) by Z'-Lyte kinase assay

A549 [2] = experiment: cells; assay type: functional, cell-based; conditions: Homo sapiens, A549, 72 h
Description: Antiproliferative activity against human A549 cells assessed as inhibition of cell proliferation under normoxia conditions after 72 hrs by SRB assay

A549 [3] = experiment: cells; assay type: functional, cell-based; conditions: Homo sapiens, A549, 72 h; remark: listed apart in the source
Description: Antiproliferative activity against human A549 cells assessed as inhibition of cell proliferation under hypoxia conditions after 72 hrs by SRB assay

HT-29 [4] = experiment: cells; assay type: functional, cell-based; conditions: Homo sapiens, HT-29, 72 h
Description: Antiproliferative activity against human HT-29 cells assessed as inhibition of cell proliferation under normoxia conditions after 72 hrs by SRB assay

HT-29 [5] = experiment: cells; assay type: functional, cell-based; conditions: Homo sapiens, HT-29, 72 h; remark: listed apart in the source
Description: Antiproliferative activity against human HT-29 cells assessed as inhibition of cell proliferation under hypoxia conditions after 72 hrs by SRB assay

[6] = Bioreductive drug activation in pH 7.4 PBS solution assessed as formation of hydroxylamino-imidazole at 4.2 umol incubated for 6 hrs in presence of cysteine and zinc dust by HPLC-Q-ToF-MS method
[7] = Bioreductive drug activation in pH 7.4 PBS solution assessed as formation of imidazole radical at 4.2 umol incubated for 6 hrs in presence of cysteine and zinc dust by HPLC-Q-ToF-MS method
A549 [8] = experiment: Induction of apoptosis in human A549 cells at 10 uM under normoxia conditions after 72 hrs by annexin VFITC/propidium iodide staining based flow cytometry (reference value: 3.94%); assay type: functional
A549 [9] = experiment: Induction of apoptosis in human A549 cells at 10 uM under hypoxia conditions after 72 hrs by annexin VFITC/propidium iodide staining based flow cytometry (reference value: 4.7%); assay type: functional
[10] = Drug metabolism in mouse liver microsomes at 5 uM in presence of NADPH incubated for 30 mins under hypoxia conditions by HPLC method; assay type: ADME; conditions: read-out: Drug metabolism
[11] = Drug metabolism in mouse liver microsomes at 5 uM in presence of NADPH incubated for 30 mins under normoxia conditions by HPLC method; assay type: ADME; conditions: read-out: Drug metabolism

Sequence of Epidermal growth factor receptor (P00533 whole entry): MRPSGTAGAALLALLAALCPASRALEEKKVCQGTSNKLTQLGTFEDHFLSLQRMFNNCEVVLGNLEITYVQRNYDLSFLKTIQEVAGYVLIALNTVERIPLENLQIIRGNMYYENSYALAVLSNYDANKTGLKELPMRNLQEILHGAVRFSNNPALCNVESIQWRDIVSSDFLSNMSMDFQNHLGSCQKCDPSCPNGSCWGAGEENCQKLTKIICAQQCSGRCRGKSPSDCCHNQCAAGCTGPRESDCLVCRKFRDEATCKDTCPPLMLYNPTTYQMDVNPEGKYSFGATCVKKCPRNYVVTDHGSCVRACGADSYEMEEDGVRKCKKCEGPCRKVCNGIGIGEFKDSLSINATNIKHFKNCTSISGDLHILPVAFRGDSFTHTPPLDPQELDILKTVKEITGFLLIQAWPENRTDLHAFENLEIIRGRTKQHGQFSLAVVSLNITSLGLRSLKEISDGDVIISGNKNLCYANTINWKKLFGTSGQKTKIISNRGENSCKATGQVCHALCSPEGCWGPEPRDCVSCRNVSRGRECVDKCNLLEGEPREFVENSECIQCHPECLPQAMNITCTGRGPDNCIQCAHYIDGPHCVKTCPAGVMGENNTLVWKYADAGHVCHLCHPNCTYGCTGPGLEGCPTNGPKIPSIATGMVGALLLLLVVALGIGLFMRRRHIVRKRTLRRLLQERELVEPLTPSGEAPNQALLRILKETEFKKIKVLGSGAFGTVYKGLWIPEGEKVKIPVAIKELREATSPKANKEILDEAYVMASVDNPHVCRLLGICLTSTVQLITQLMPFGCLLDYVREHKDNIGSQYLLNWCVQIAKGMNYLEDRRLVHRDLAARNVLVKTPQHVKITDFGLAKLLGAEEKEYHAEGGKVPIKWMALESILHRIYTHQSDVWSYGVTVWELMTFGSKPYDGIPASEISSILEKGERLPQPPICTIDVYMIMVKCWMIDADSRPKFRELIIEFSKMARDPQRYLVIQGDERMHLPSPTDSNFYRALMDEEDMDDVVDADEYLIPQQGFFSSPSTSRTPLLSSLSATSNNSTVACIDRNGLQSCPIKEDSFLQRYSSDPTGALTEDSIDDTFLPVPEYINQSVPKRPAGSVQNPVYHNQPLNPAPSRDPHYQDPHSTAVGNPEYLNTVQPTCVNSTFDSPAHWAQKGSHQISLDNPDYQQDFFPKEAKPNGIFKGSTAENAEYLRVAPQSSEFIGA

Row | Structure (SMILES) | IC50 [1] | IC50 (A549 [2]) | IC50 (A549 [3]) | IC50 (HT-29 [4]) | IC50 (HT-29 [5]) | metabolised at 0.5 h, 5 µM [10] | metabolised at 0.5 h, 5 µM [11] | Drug metabolism [6] | Drug metabolism [7] | Activity (A549 [8]) | Activity (A549 [9])
1 | Nc1n[n+]([O-])c2ccccc2[n+]1[O-] [TIRAPAZAMINE] | – | > 50 µM | 6.9 µM | > 50 µM | – | – | – | – | – | – | –
2 | COc1cc2c(Nc3cccc(Br)c3)ncnc2cc1OCCCCn1ccnc1[N+](=O)[O-] | 0.00037 µM | 3.09 µM | 1.97 µM | 4.02 µM | 1.43 µM | – | – | – | – | – | –
3 | COc1cc2c(Nc3cccc(Br)c3)ncnc2cc1OCCCCCn1ccnc1[N+](=O)[O-] | 0.00033 µM | 8.78 µM | 8.42 µM | 5.05 µM | 2.54 µM | – | – | – | – | – | –
4 | COc1cc2c(Nc3ccc(OCc4cccc(F)c4)c(Cl)c3)ncnc2cc1OCCCCn1ccnc1[N+](=O)[O-] | – | 10.5 µM | 8.69 µM | 4.49 µM | 2.27 µM | – | – | – | – | – | –
5 | COc1cc2c(Nc3ccc(OCc4cccc(F)c4)c(Cl)c3)ncnc2cc1OCCCCCCn1ccnc1[N+](=O)[O-] | 0.0355 µM | > 50 µM | > 50 µM | > 50 µM | > 50 µM | – | – | – | – | – | –
6 | C#Cc1cccc(Nc2ncnc3cc(OCCCCCCn4ccnc4[N+](=O)[O-])c(OC)cc23)c1 | 0.00057 µM | 10.3 µM | 2.7 µM | 4.5 µM | 1.37 µM | – | – | – | – | – | –
7 | COc1cc2c(Nc3ccc(F)c(Cl)c3)ncnc2cc1OCCOCCn1ccnc1[N+](=O)[O-] | 0.00032 µM | 12.9 µM | 7.64 µM | 9.86 µM | 5.52 µM | – | – | – | – | – | –
8 | COc1cc2c(Nc3ccc(OCc4cccc(F)c4)c(Cl)c3)ncnc2cc1OCCCCCn1ccnc1[N+](=O)[O-] | 0.0166 µM | 19.9 µM | 14.4 µM | 14.1 µM | 5.04 µM | – | – | – | – | – | –
9 | C#Cc1cccc(Nc2ncnc3cc(OCCCCCn4ccnc4[N+](=O)[O-])c(OC)cc23)c1 | 0.00047 µM | 0.77 µM | 0.18 µM | 1.31 µM | 0.28 µM | > 80% | < 10% | Metabolite detected | Metabolite detected | 12.46% | 26.15%
10 | COc1cc2c(Nc3cccc(Br)c3)ncnc2cc1OCCCn1ccnc1[N+](=O)[O-] | 0.00049 µM | 13.5 µM | 7.83 µM | 10.9 µM | 2.82 µM | – | – | – | – | – | –
11 | COc1cc2c(Nc3ccc(OCc4cccc(F)c4)c(Cl)c3)ncnc2cc1OCCOCCn1ccnc1[N+](=O)[O-] | 0.0201 µM | 5.06 µM | 6.23 µM | 7.64 µM | 2.59 µM | – | – | – | – | – | –

Continued, in another order:

Row | IC50 [1] | IC50 (A549 [2]) | IC50 (A549 [3]) | IC50 (HT-29 [4]) | IC50 (HT-29 [5]) | metabolised at 0.5 h, 5 µM [10] | metabolised at 0.5 h, 5 µM [11] | Structure (SMILES) | Drug metabolism [6] | Drug metabolism [7] | Activity (A549 [8]) | Activity (A549 [9])
12 | 0.00077 µM | 5.91 µM | 4.31 µM | 6.14 µM | 2.06 µM | – | – | COc1cc2c(Nc3ccc(F)c(Cl)c3)ncnc2cc1OCCCn1ccnc1[N+](=O)[O-] | – | – | – | –
13 | 0.00031 µM | 2.67 µM | 1.41 µM | 1.54 µM | 0.67 µM | – | – | COc1cc2c(Nc3ccc(F)c(Cl)c3)ncnc2cc1OCCCCn1ccnc1[N+](=O)[O-] | – | – | – | –
14 | 0.00144 µM | 13.4 µM | 6.52 µM | 5.63 µM | 1.84 µM | – | – | COc1cc2c(Nc3ccc(F)c(Cl)c3)ncnc2cc1OCCCCCCn1ccnc1[N+](=O)[O-] | – | – | – | –
15 | – | 2.31 µM | 1.17 µM | 3.17 µM | – | – | – | C#Cc1cccc(Nc2ncnc3cc(OCCCn4ccnc4[N+](=O)[O-])c(OC)cc23)c1 | – | – | – | –
16 | 0.00082 µM | 13 µM | 10.1 µM | 10.8 µM | 3.44 µM | – | – | COc1cc2c(Nc3cccc(Br)c3)ncnc2cc1OCCOCCn1ccnc1[N+](=O)[O-] | – | – | – | –
17 | 0.00026 µM | 2.21 µM | 1.08 µM | 2.52 µM | 0.59 µM | – | – | C#Cc1cccc(Nc2ncnc3cc(OCCCCn4ccnc4[N+](=O)[O-])c(OC)cc23)c1 | – | – | – | –
18 | 0.00078 µM | 30.2 µM | 20.2 µM | 10.5 µM | 4.3 µM | – | – | COc1cc2c(Nc3cccc(Br)c3)ncnc2cc1OCCCCCCn1ccnc1[N+](=O)[O-] | – | – | – | –
19 | 0.00054 µM | 9.77 µM | 6.43 µM | 8.77 µM | 6.04 µM | – | – | C#Cc1cccc(Nc2ncnc3cc(OCCOCCn4ccnc4[N+](=O)[O-])c(OC)cc23)c1 | – | – | – | –
20 | 0.0305 µM | 3.97 µM | 1.52 µM | 3.79 µM | 0.94 µM | – | – | COc1cc2c(Nc3ccc(OCc4cccc(F)c4)c(Cl)c3)ncnc2cc1OCCCn1ccnc1[N+](=O)[O-] | – | – | – | –
21 | – | 4.26 µM | 1.74 µM | 4.08 µM | 1.03 µM | – | – | COc1cc2c(Nc3ccc(F)c(Cl)c3)ncnc2cc1OCCCCCn1ccnc1[N+](=O)[O-] | – | – | – | –
